From EP0306698A1, “Condensed diazepinones, processes for their preparation, and medicaments containing these compounds” (Dr. Karl Thomae GmbH, priority 1987, dated 1989)
Structures can show the parent of a compound that is named as a salt. Where two headings read alike, the source gives them in different places.

How the values were obtained:
[1] = target: T1, muskarinischen Rezeptoren (Ventrikel) (Rattus norvegicus, UniProt P10980); test: Receptor binding test in vivo (3H-NMS), heart ventricle; parameters: species or system Ratten; conditions: iv
T1 construct: wurden die Tiere getötet, das Herz, die Bronchien und die Tränendrüsen entnommen; from tissue; host or cells: rat heart (atrium, ventricle), in vivo labelling with 3H-NMS
T1 sequence (P10980 1-466): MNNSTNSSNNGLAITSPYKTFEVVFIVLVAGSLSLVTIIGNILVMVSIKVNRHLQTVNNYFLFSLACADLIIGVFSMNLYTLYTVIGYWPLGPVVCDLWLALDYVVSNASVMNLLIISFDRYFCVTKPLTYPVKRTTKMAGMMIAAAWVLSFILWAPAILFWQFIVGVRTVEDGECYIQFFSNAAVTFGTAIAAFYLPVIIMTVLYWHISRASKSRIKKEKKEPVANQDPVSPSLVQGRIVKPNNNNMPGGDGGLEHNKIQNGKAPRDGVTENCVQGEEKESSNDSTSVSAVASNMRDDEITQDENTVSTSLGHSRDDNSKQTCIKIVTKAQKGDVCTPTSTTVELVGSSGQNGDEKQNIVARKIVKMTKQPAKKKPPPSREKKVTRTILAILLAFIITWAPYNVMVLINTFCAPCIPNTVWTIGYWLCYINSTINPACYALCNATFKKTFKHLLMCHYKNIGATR
Experimental: (§1) Für diese Experimente wurden weibliche Ratten mit einem Körpergewicht von ca. 200 g verwendet. Vor Versuchsbeginn wurden die Tiere mit einer Dosis von 1,25 g/kg Urethan narkotisiert. Die Tiere erhielten jeweils die vorgesehene Dosis der Prüfsubstanz durch i.v. Injektion. Nach Ablauf von 15 Minuten wurde auf gleiche Weise 113 ng/kg ^3H-N-Methylscopolamin (^3H-NMS) gegeben. Nach weiteren 15 Minuten wurden die Tiere getötet, das Herz, die Bronchien und die Tränendrüsen entnommen. Diese Organe wurden in Soluene R aufgelöst und die Radioaktivität bestimmt. Diese Messwerte wurden als Totalbindung angenommen. […] Aus diesen Versuchen wurden für die einzelnen Organe IDso-Werte ermittelt. Die IDso-Werte sind Dosen der Prüfsubstanzen, die 50% der spezifischen Bindung von ^3H-NMS an die muskarinischen Rezeptoren der jeweiligen Organe hemmten.

[2] = test system: Acetylcholinwirkung auf Bronchien; test: Inhibition of the acetylcholine effect on bronchi; assay type: in vivo, Meerschweinchen; conditions: for ED50: Cavia porcellus, 5 min, anaesthetised guinea pig, acetylcholine 5 min after test substance, expiratory resistance, read-out: -log ED50 Bronchien (converted)
Source text: (§2) Dabei wurde die Herzfrequenz durch extrakorporale Ableitung des EKG, der Ausatemwiderstand nach Konzett-Rößler und die Kontraktion […] an den untersuchten Organen wurden Dosis-Wirkungskurven aufgenommen und daraus -log EDso-Werte bestimmt. Ergebnisse siehe Tabelle V.

[3] = test system: Acetylcholinwirkung auf Blase; test: Inhibition of the acetylcholine effect on bladder; assay type: in vivo, Meerschweinchen; conditions: for ED50: Cavia porcellus, 5 min, anaesthetised guinea pig, acetylcholine 5 min after test substance, bladder contraction, read-out: -log ED50 Blase (converted)
Source text: as §2

[4] = test system: Acetylcholinwirkung auf Herzfrequenz; test: Inhibition of the acetylcholine effect on heart rate; assay type: in vivo, Meerschweinchen; conditions: for ED50: Cavia porcellus, 5 min, anaesthetised guinea pig, acetylcholine 5 min after test substance, heart rate
Source text: as §2

Speichelsekretion = test: Inhibition of pilocarpine-induced salivation in the rat; assay type: in vivo, Ratte; conditions: for ED50: Rattus norvegicus, iv, dose reducing saliva volume by 50%, pilocarpine 2 mg/kg s.c., read-out: Speichelsekretionshemmung (Ratte) ED50
Experimental: Nach Lavy und Mulder (Arch. int. Pharmacodyn. 178, 437-445, (1969)) erhielten mit 1,2 g/kg Urethan narkotisierte männliche THOM-Ratten steigende Dosen der Substanz i.v.. Die Speichelsekretion wurde durch s.c. Gabe von 2 mg/kg Pilocarpin ausgelöst. Der Speichel wurde mit Fließpapier aufgesaugt, die von ihm eingenommene Fläche alle 5 Minuten planimetrisch bestimmt. Die Dosis der Substanz, die das Speichelvolumen um 50% verminderte, wurde graphisch ermittelt. Ergebnisse siehe Tabelle 11.

M1 = M1 activity in the rat: inhibition of blood pressure rise caused by McN-A-343; assay type: in vivo, Ratte
Experimental: (§3) Die angewandte Methode wurde von Hammer und Giachetti (Life Sciences 31, 2991-2998 (1982)) beschrieben. 5 Minuten nach intravenöser Injektion steigender Dosen der Substanz wurden entweder der rechte Vagus elektrisch stimuliert (Frequenz: 25 Hz; Pulsbreite: 2ms; Reizdauer: 30s; Voltzahl: supramaximal) oder 0,3 mg/kg McN-A-343 in männliche THOM-Ratten intravenös injiziert. Die durch Vagusstimulation hervorgerufene Bradykardie und der durch McN-A-343 verursachte Blutdruckanstieg wurden bestimmt. Die Dosis der Substanzen, die entweder die vagale Bradykardie (M2) oder den Blutdruckanstieg (Mi) um 50% verminderte, wurde graphisch ermittelt. Ergebnisse siehe Tabelle II.

[5] = target: T2, muskarinischen Rezeptoren (Tränendrüsen) (Rattus norvegicus, UniProt P08483); conditions: in vivo, iv
T2 sequence (P08483 whole entry): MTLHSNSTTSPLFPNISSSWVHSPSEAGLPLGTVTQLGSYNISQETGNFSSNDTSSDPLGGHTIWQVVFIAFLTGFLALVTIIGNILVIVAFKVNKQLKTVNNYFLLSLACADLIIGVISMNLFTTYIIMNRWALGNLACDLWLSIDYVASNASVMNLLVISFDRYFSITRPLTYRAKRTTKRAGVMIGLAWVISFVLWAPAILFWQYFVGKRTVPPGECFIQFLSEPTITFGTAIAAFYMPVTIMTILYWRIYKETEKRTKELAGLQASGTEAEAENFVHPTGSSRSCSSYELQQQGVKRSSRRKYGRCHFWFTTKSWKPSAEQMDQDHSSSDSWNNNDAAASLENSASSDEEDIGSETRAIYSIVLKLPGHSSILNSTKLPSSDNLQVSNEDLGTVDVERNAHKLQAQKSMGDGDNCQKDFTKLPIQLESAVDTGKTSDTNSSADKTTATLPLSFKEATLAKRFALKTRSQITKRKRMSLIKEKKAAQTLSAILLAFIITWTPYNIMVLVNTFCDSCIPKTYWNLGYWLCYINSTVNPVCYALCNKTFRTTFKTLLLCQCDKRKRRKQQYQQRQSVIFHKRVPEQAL

[6] = target: T3, muskarinischen Rezeptoren (Atrium) (Rattus norvegicus, UniProt P10980); test: Receptor binding test in vivo (3H-NMS), heart atrium; parameters: species or system Ratten
T3 construct: wurden die Tiere getötet, das Herz, die Bronchien und die Tränendrüsen entnommen; from tissue; host or cells: rat heart (atrium, ventricle), in vivo labelling with 3H-NMS
T3 sequence (P10980 1-466): T1 sequence (P10980 1-466)
Source text: as §1, with “Nach Ablauf von 15 Minuten wurde auf gleiche Weise 113 ng/kg ^3H-N-Methylscopolamin (^3H-NMS) gegeben.” left out

[7] = target: T2, muskarinischen Rezeptoren (Tränendrüsen); test: in vivo; conditions: iv, 0.5 h, read-out: ID50 Tränendrüsen
[8] = target: T4, muscarinischen Rezeptoren (Herz) (Rattus norvegicus, UniProt P10980); test: biochemical; assay type: binding, Ratte; conditions: whole heart homogenate 1:400, 0,3 nmolar 3H-NMS, 30°C, 45 min; read-out: Rezeptor-Bindungs-Tests -log IC50 Herz (converted)
T4 construct: Das Gesamtherz wurde mit einer Schere zerkleinert; Alle Organe wurden abschließend in einem Potter homogenisiert; from tissue; host or cells: rat whole heart homogenate
T4 sequence (P10980 1-466): T1 sequence (P10980 1-466)
Source text: Als Organspender dienten männliche Sprague-Dawley-Ratten mit 180-220 g Körpergewicht. Nach Entnahme von Herz und Submandibularis wurden alle weiteren Schritte in eiskaltem Hepes-HCI-Puffer (pH 7,4; 100 m molar NaCI, 10 m molar MgCI2) vorgenommen. Das Gesamtherz wurde mit einer Schere zerkleinert. Alle Organe wurden abschließend in einem Potter homogenisiert.
Für den Bindungstest wurden die Organhomogenate in folgender Weise verdünnt: • Gesamtherz 1:400 • Submandibularis 1:400
Die Inkubation der Organhomogenate erfolgte bei einer bestimmten Konzentration des Radioliganden und einer Konzentrationsreihe der nichtradioaktiven Testsubstanzen im Eppendorf-Zentrifugenröhrchen bei 30°C. Die Inkubationsdauer betrug 45 Minuten. Als Radioligand wurde 0,3 nmolar ^3H-N-Methylscopolamin (^3H-NMS) verwendet. Die Inkubation wurde durch Zugabe von eiskaltem Puffer mit nachfolgender Vakuumfiltration beendet. Die Filter wurden mit kaltem Puffer gespült und ihre Radioaktivität bestimmt. Sie repräsentiert die Summe von spezifischer und unspezifischer Bindung von ^3H-NMS. Der Anteil der unspezifischen Bindung wurde definiert als jene Radioaktivität die in Anwesenheit von 1 u. molar Quinciidinylbenzilat gebunden wurde. Es wurden immer Vierfachbestimmungen vorgenommen. Die ICso-Werte der nicht markierten Testsubstanzen wurden graphisch bestimmt. Sie repräsentieren jene Konzentration der Testsubstanz, bei welcher die spezifische Bindung von ^3H-NMS an die muscarinischen Rezeptoren in den verschiedenen Organen um 50 % gehemmt wurde.

M2 = M2 activity in the rat: inhibition of bradycardia induced by vagus stimulation; assay type: in vivo, Ratte; conditions: i.v.; dose reducing vagal bradycardia by 50%; 5 min after injection
Experimental: as §3

Solubility in water = assay type: physicochemical; conditions: for Löslichkeit in Wasser: result in words; for solubility: water, read-out: Löslichkeit in Wasser
[9] = ratio of ED50 salivation inhibition to ED50 M2 activity, rat
[10] = i.v., dose reducing McN-A-343 (0,3 mg/kg) blood pressure rise by 50%, 5 min

Row | SMILES | ED50 [2] [µmol/kg] | ED50 [3] [µmol/kg] | IC50 [8] [nM] | M2-Aktivität (Ratte) ED50 (M2) | ED50 [4] [µmol/kg] | ED50 (Speichelsekretion) [mg/kg] | M1-Aktivität (Ratte) ED50 (M1; [10]) | other results
1 | CN1C2CCC1CC(OC(=O)C(CO)c1ccccc1)C2 (racemic) [Z, Atropin, reference compound] |  |  |  |  |  |  |  | ID50 Herz Ventrikel ([1]; in vivo): 0,03 mg/kg; -log ED50 Bronchien ([2]; in vivo): 7,96 Molkg^-1; -log ED50 Blase ([3]; in vivo): 7,03 Molkg^-1; -log ED50 Herz ([4]; in vivo): 7,70 Molkg^-1; Verhältnis Speichelsekretionshemmung zu M2-Aktivität (Speichelsekretion; in vivo): 2,2; M1-Aktivität (Ratte) ED50 (M1; in vivo): 16 µg/kg; ID50 Tränendrüsen [5]: 0,2 mg/kg; Verhältnis der ID50 Tränendrüse zu ID50 des Atrium ([6]; in vivo): 1,5; ID50 Herz Atrium ([6]; in vivo, iv): 0,08 mg/kg
2 | O=C1Nc2cccnc2N(C(=O)N2CCCC(CCCN3CCCCC3)C2)c2ccccc21 (stereo not drawn) [A, 5,11-Dihydro-11-[[3-[3-(1-piperidinyl)propyl]-1-piperidinyl]carbonyl]-6H-pyrido[2,3-b][1,4]-benzodiazepin-6-on] | 0.117 | 1.35 | 2 | 6,9 µg/kg | 0.0871 | 0.035 | 49 µg/kg | ED50 [7]: 0.2 mg/kg; Verhältnis Speichelsekretionshemmung zu M2-Aktivität (Speichelsekretion; [9]): 5; Löslichkeit in Wasser (Solubility in water; methanesulfonate salt): leicht löslich; solubility (Solubility in water; hydrochloride salt): ~2000 µg/mL; solubility (Solubility in water; salt with N-Cyclohexylsulfamidsäure): ~10000 µg/mL; ED50 ([6]; rat, iv, 0.5 h; read-out: ID50 Herz Atrium): 0.01 mg/kg
3 | Cl.O=C1Nc2cccnc2N(C(=O)N2CCCC(CCCN3CCCC3)C2)c2ccccc21 (stereo not drawn) [B, 5,11-Dihydro-11-[[3-[3-(1-pyrrolidinyl)propyl]-1-piperidinyl]carbonyl]-6H-pyrido[2,3-b][1,4]-benzodiazepin-6-on-hydrochlorid] | 0.0871 | 0.692 | 10 |  | 0.0661 |  |  | solubility (Solubility in water; hydrochloride salt): ~3000 µg/mL
4 | CCN(CC)CCCCC1CCCCN1C(=O)N1c2ccccc2C(=O)Nc2cccnc21 (stereo not drawn) [Beispiel 4, 11-[[2-[4-(Diethyiamino)butyl]-1-piperidinyl]carbonyl]-5,11-dihydro-6H-pyrido[2,3-b][1,4]benzodiazepin-6-on] |  |  |  |  |  |  |  | Löslichkeit in Wasser (Solubility in water; dihydrochloride): wasserlösliche
5 | CS(=O)(=O)O.O=C1Nc2cccnc2N(C(=O)N2CCCC(CCN3CCCCC3)C2)c2ccccc21 (stereo not drawn) [C, 5,11-Dihydro-11-[[3-[2-(1-piperidinyl)ethyl]-1-piperidinyl]carbonyl]-6H-pyrido[2,3-b][1,4]-benzodiazepin-6-on-methansulfonat] | 0.0417 | 0.355 | 3.02 | 7,6 µg/kg | 0.0427 | 0.058 | 39 µg/kg | Verhältnis Speichelsekretionshemmung zu M2-Aktivität (Speichelsekretion; [9]): 7,6
6 | O=C1Nc2cccnc2N(C(=O)N2CCCC(CCN3CCCC3)C2)c2ccccc21 (stereo not drawn) [D, 5,11-Dihydro-11-[[3-(2-(1-pyrrolidinyl)ethyl]-1-piperidinyl]carbonyl]-6H-pyrido[2,3-b][1,4]-benzodiazepin-6-on-hydrochlorid] | 0.0324 | 0.708 | 6.03 |  | 0.0479 |  |  | 
7 | CN(CCC1CCCN(C(=O)N2c3ccccc3C(=O)Nc3cccnc32)C1)C1CCCC1 (stereo not drawn) [E, 11-[[3-[2-[(Cyclopentyl)methylamino]ethyl]-1-piperidinyl]carbonyl]-5,11-dihydro-6H-pyrido[2,3-b]-[1,4]-benzodiazepin-6-on-hydrochlorid] | 0.0977 | 0.891 | 3.02 |  | 0.0813 |  |  | 
8 | O=C1Nc2cccnc2N(C(=O)N2CCCC(CCN3CCCCCC3)C2)c2ccccc21 (stereo not drawn) [F, 5,11-Dihydro-11-[[3-[2-(hexahydro-1H-1-azepinyl)ethyl]-1-piperidinyl]carbonyl]-6H-pyrido[23-b]-[1,4]benzodiazepin-6-on-hydrochlorid] | 0.0398 | 0.38 | 3.02 |  | 0.0162 |  |  | 
9 | O=C1Nc2ccccc2N(C(=O)N2CCCC(CCN3CCCCC3)C2)c2ncccc21 (stereo not drawn) [G, 6,11-Dihydro-11-[[3-[2-(1-piperidinyl)ethyl]-1-piperidinyl]carbonyl]-5H-pyrido[23-b][1,5]-benzodiazepin-5-on] | 0.0263 | 0.302 | 3.98 | 8,13 µg/kg | 0.0148 | 0.00683 | 7,16 µg/kg | Verhältnis Speichelsekretionshemmung zu M2-Aktivität (Speichelsekretion; [9]): 20,00
10 | CCN(CC)CC1CCCCN1CC(=O)N1c2ccccc2C(=O)Nc2cccnc21 (stereo not drawn) [X, 11-[[2-[(Diethylamino)methyl]-1-piperidinyl]acetyl]-5,11-dihydro-6H-pyrido[2,3-b][1,4]-benzodiazepin-6-on, reference compound] | 2.63 | 18.6 | 151 | 160 µg/kg | 1.45 |  | 988 µg/kg | ED50 ([1]; rat, 0.5 h, read-out: ID50 Herz Ventrikel): 0.6 mg/kg; ED50 [7]: > 30 mg/kg; ED50 ([6]; rat, iv, 0.5 h, read-out: ID50 Herz Atrium): 1 mg/kg
11 | CN1CCN(CC(=O)N2c3ccccc3C(=O)Nc3cccnc32)CC1 [Y, 5,11-Dihydro-11-[(4-methyl-1-piperazinyl)acetyl]-6H-pyrido[2.3-b][1,4]benzodiazepin-6-on, reference compound] | 0.269 | 4.37 |  |  | 1.41 | 0.084 |  | 
